Counter-ions that a name gives are not always drawn. Like-named read-outs stand apart in the source and are kept apart here.
What was measured:
[1] = depending on the dosage form; reported, ref not given; cited from earlier work
[2] = cited from earlier work
[3] = Determination of SQR solubility in oils, surfactants and co-surfactants; assay type: physicochemical; settings: ethanol

## CC(C)(C)NC(=O)[C@@H]1C[C@@H]2CCCC[C@@H]2CN1C[C@@H](O)[C@H](Cc1ccccc1)NC(=O)[C@H](CC(N)=O)NC(=O)c1ccc2ccccc2n1 [SQR, Saquinavir mesylate]
[1]
  oral bioavailability: 0.7–4.0%
[2]; pH of 6.5
  aqueous solubility: 0.073 mg/mL
[2]; pH of 7.4
  aqueous solubility: 0.036 mg/mL
[3]
  solubility at 72 h: 126 mg/mL
